Results as given in US10407406B2, “2-halo-5-alkynyl-pyridyl nicotinic ligands” (Georgetown University, priority 2013, dated 2019).
pEC50, pIC50, pKi: −log10 of the molar value. Read-outs that look alike come from different tables or passages of the source.

How the values were obtained:
human α4β2 nAChRs = molecular target: T1, human α4β2 nAChRs (Homo sapiens, UniProt P17787+P43681); experiment: 86Rb+ efflux assay in cells expressing human α4β2 nAChRs; assay type: cell-based; settings: for α4β2 Emax: efficacy compared to 100 μM (−)-nicotine; for pIC50: desensitization, 10 min pre-treatment before 100 μM (−)-nicotine
T1 construct: expressed in transfected cells
Protocol: (§1) The functional properties of the ligands were determined by ^86Rb^| efflux assays in cells expressing α3β4 and α4β2 nAChR subtypes. The functional activity of each ligand was measured for its agonism, antagonism and desensitization ability. Agonist activity for each of the ligands was tested at eight different concentrations. […] The full concentration-effect curves generated potency (EC50) and efficacy (Emax) of each ligand. […] Each ligand was tested for antagonist activity at eight concentrations. The potency (IC50(0′)) of each ligand as an antagonist was derived from the full concentration-effect curves. […] Although ^86Rb^+ efflux assays are mainly used to determine functional properties, whole cell current measurements were also used to verify the key experiments.
(§2) In Vitro Effects on nAChR Function. […] Their agonist activities were assessed by measuring stimulated ^86Rb^+ efflux from stably transfected cells, either expressing human α4β2 nAChRs or rat α3β4 receptors.
(§3) The cell lines expressing defined rat nAChR subtypes were established previously by stably transfecting HEK 293 cells with rat nAChR subunit genes. The cell line expressing human α4β2 nAChRs, YXα4β2H1, was established recently. These cell lines were maintained in minimum essential medium (MEM) supplemented with 10% fetal bovine serum, 100 units/mL penicillin G, […] streptomycin and selective antibiotics at 37° C. with 5% CO2 in a humidified incubator. Fetal bovine scrum was provided by Gemini Bio-Products (Woodland, Calif.). Tissue culture medium and antibiotics were obtained from Invitrogen Corporation (Carlsbad, Calif.), unless otherwise stated.
(§4) Functional properties of compounds at nAChRs expressed in the transfected cells were measured using ^86Rb^+ efflux assays as described previously. In brief, cells expressing human α4β2 or rat α3β4 nAChRs were plated into 24-well plates coated with poly-D-lysine. The plated cells were grown at 37° C. for 18 to 24 hour to reach 85-95% confluence. The cells were then incubated in growth medium (0.5 mL/well) containing ^86Rb^+ (2 μCi/mL) for 4 hour at 37° C. The loading mixture was then aspirated, and the cells were washed four times with 1 mL buffer (15 mM HEPES, 140 mM NaCl, 2 mM KCl, 1 mM MgSO4, 1.8 mM CaCl2, 11 mM Glucose, pH 7.4). One mL of buffer with or without compounds to be tested was then added to each well. After incubation for 2 min, the assay buffer was collected for measurements of ^86R^+ released from the cells. Cells were then lysed by adding 1 mL of 100 mM NaOH to each well, and the lysate was collected for determination of the amount of ^86Rb^+ that was in the cells at the end of the efflux assay. Radioactivity of assay samples and lysates was measured by liquid scintillation counting. Total loading (cpm) was calculated as the sum of the assay sample and the lysate of each well. The amount of ^86Rb^+ efflux was expressed as a percentage of ^86Rb^| loaded. […] For obtaining EC50 and Emax values, stimulation curves were constructed in which 8 different concentrations of a ligand were included in the assay. […] EC50, Emax and IC50(10′) values were determined by nonlinear least-squares regression analyses (GraphPad, San Diego, Calif.).

α7 nAChR = molecular target: T2, α7 nAChR (Rattus norvegicus, UniProt Q05941); experiment: biochemical; assay type: binding; settings: competition against [3H]-epibatidine
T2 construct: expressed in transfected cells; host or cells: HEK 293
Text: (§5) Pharmacological Properties. We measured the in vitro binding affinities of the ligands for defined receptor subtypes (α2β2, α2β4, α3β2, α3β4, α4β2, α4β4, α6β2, α6β4, and α7) expressed in stably transfected cell lines. […] Rat forebrain homogenates were included to allow comparison between the heterologous and native α4β2 and α7 nAChRs.
(§6) To determine selectivities of these compounds in binding assays among the three predominant nAChR subtypes, α3β4, α4β2, and α7, the ratios of Ki values (α3β4/α4β2 and α7/α4β2) were determined.
as §3, with “Fetal bovine scrum was provided by Gemini Bio-Products (Woodland, Calif.). Tissue culture medium and antibiotics were obtained from Invitrogen Corporation (Carlsbad, Calif.), unless otherwise stated.” left out
Briefly, cultured cells at >80% confluence were removed from their flasks (80 cm^2) with a disposable cell scraper and placed in 10 mL of 50 mM Tris⋅HCl buffer (pH 7.4, 4° C.). […] The filter-retained radioactivity was measured by liquid scintillation counting. […] Data from competition binding assays were analyzed using Prism 5 (GraphPad Software, San Diego, Calif.).

rat α3β4 nAChRs = molecular target: T3, rat α3β4 nAChRs (Rattus norvegicus, UniProt P04757+P12392); experiment: 86Rb+ efflux assay in cells expressing rat α3β4 nAChRs; assay type: cell-based; settings: for Emax: read-out: α3β4 Emax; for α3β4 Emax: efficacy compared to 100 μM (−)-nicotine
T3 construct: expressed in transfected cells; host or cells: HEK 293
Protocol: as §1, §2, §3, §4

α4β2 nAChR = molecular target: T4, α4β2 nAChR (Rattus norvegicus, UniProt P09483+P12390); experiment: [3H]-epibatidine competition binding, α4β2 nAChR in stably transfected HEK 293 cells; settings: competition against [3H]-epibatidine
T4 construct: expressed in transfected cells; host or cells: HEK 293
Text: as §5, §6, §3
(§7) Briefly, cultured cells at >80% confluence were removed from their flasks (80 cm^2) with a disposable cell scraper and placed in 10 mL of 50 mM Tris⋅HCl buffer (pH 7.4, 4° C.). The cell suspension was centrifuged at 10,000×g for 5 min and the pellet was collected. The cell pellet was then homogenized in 10 mL buffer with a polytron homogenizer and centrifuged at 36,000 g for 10 min at 4° C. The membrane pellet was resuspended in fresh buffer, and aliquots of the membrane preparation were used for binding assays. […] Bound and free ligands were separated by vacuum filtration through Whatman GF/C filters treated with 0.5% polyethylenimine. The filter-retained radioactivity was measured by liquid scintillation counting. Specific binding was defined as the difference between total binding and nonspecific binding. Data from competition binding assays were analyzed using Prism 5 (GraphPad Software, San Diego, Calif.).

α3β4 nAChR = molecular target: T5, α3β4 nAChR (Rattus norvegicus, UniProt P04757+P12392); experiment: [3H]-epibatidine competition binding, α3β4 nAChR in stably transfected HEK 293 cells; settings: competition against [3H]-epibatidine
T5 construct: expressed in transfected cells; host or cells: HEK 293
Text: as §5, §6, §3, §7

[1] = agonist activity, stimulated 86Rb+ efflux, read-out: α3β4 EC50

Structure (SMILES)	pEC50 (human α4β2 nAChRs)	α4β2 Emax (human α4β2 nAChRs; di-trifluoroacetic acid) [%]	Emax (human α4β2 nAChRs; read-out: α4β2 Emax, efficacy compared to 100 μM (−)-nicotine) [%]	pKi (α7 nAChR)	pEC50 (rat α3β4 nAChRs)	Emax (rat α3β4 nAChRs) [%]	agonist activity at the α3β4 nAChRs (in words) (rat α3β4 nAChRs; stimulated 86Rb+ efflux)	pKi (α4β2 nAChR)	pKi (α3β4 nAChR)	pIC50 (human α4β2 nAChRs)	agonist activity at the α4β2 nAChRs (in words) (human α4β2 nAChRs)	Emax (human α4β2 nAChRs; read-out: α4β2 Emax) [%]	pEC50 (human α4β2 nAChRs; agonist activity, stimulated 86Rb+ efflux, read-out: α4β2 EC50)	α4β2 Emax (human α4β2 nAChRs) [%]	pEC50 (rat α3β4 nAChRs; [1])	pIC50 (rat α3β4 nAChRs; desensitization, 10 min pre-treatment before 100 μM (−)-nicotine)	α3β4 Emax (rat α3β4 nAChRs) [%]
FCCCCC#Cc1cnc(F)c(OC[C@@H]2CCN2)c1 [YL-2-203, (S)-3-(azetidin-2-ylmethoxy)-2-fluoro-5-(6-fluorohex-1-ynyl)pyridine di-trifluoroacetic acid]	7.46	33	< 33	4.96	5.20	26	did not show detectable agonist activity	9.70	7.03	–	–	–	–	–	–	–	–
CCCCC#Cc1cnc(C)c(OC[C@@H]2CCN2)c1 [YL-1-127, (S)-3-(azetidin-2-ylmethoxy)-5-(hex-1-ynyl)-2-methylpyridine]	–	–	–	–	4.96	10	did not show detectable agonist activity	7.85	6.24	6.59	–	–	–	–	–	–	–
CN1CCCC1c1cccnc1 (single isomer, unassigned; (-)) [(−)-Nicotine]	–	–	–	–	–	–	–	–	–	–	full agonist activities	100	–	–	–	–	–
OCCCCC#Cc1cncc(OC[C@@H]2CCN2)c1 [Sazetidine-A]	–	–	–	6.17	–	–	–	10.47	8.19	7.96	–	–	7.62	40	6.14	5.89	96
c1cnc2cc3c(cc2n1)[C@@H]1CNC[C@H]3C1 [Varenicline]	–	–	–	–	–	–	–	9.85	7.57	–	–	–	–	–	5.49	–	82
